The text below walks through data of patent US20210330686A1, “COMPOSITION CONTAINING 2'-FUCOSYLLACTOSE FOR PREVENTING STROKE” (Advanced Protein Technologies Corp., priority 2018, published 2021).

Assay [1] relates to brain injury induced by middle cerebral artery occlusion (MCAO). The assay is described as follows: TTC staining of stroke-induced brain (MCAO model) after oral pre-administration. Type of assay: in vivo, Sprague-Dawley rats.
For assay [2] the test system is unchanged. The assay is described as follows: Behavioral test: spontaneous exercise of stroke-induced animals (MCAO model). In kind it is in vivo, Sprague-Dawley rats.

With 2′-fucosyllactose [2′-FL], the “brain damage compared to the control group not administered” value in assay [1] (experimental group administered with 2'-fucosyllactose) is on record as “significantly suppressed”. The “brain damage suppression (TTC staining)” value in assay [1] (oral pre-administration 0-7 weeks, 200, 300, 400 mg/kg, before MCAO) is “the longer the 2′-FL pre-administration period and the higher the dose, the better the effect on brain damage suppression”. Besides, the results for the “exercise amount 2 days after stroke induction (D2)” value in assay [2] (oral 300 mg/kg for 3 days before MCAO) and in assay [2] (oral 400 mg/kg for 3 days before MCAO) were “significantly increase” and “no statistically significant increase in exercise”, respectively. Moreover, the “total exercise amount 2 days after stroke induction (D2)” value in assay [2] (oral pre-administration for 3 days, all doses) was “found to increase the total exercise amount”.
